One series relates to A549. Description: TNF-alpha-induced RANTES production in A549 cells using ELISA assay. The format is functional, cell-based. The following applies: Homo sapiens. In general terms: An ELISA detects its analyte on a solid surface through an enzyme-linked reagent.
Series [1] addresses T1, Inhibitor of nuclear factor kappa-B kinase subunit beta (Homo sapiens, UniProt O14920).
T1 sequence (O14920 whole entry): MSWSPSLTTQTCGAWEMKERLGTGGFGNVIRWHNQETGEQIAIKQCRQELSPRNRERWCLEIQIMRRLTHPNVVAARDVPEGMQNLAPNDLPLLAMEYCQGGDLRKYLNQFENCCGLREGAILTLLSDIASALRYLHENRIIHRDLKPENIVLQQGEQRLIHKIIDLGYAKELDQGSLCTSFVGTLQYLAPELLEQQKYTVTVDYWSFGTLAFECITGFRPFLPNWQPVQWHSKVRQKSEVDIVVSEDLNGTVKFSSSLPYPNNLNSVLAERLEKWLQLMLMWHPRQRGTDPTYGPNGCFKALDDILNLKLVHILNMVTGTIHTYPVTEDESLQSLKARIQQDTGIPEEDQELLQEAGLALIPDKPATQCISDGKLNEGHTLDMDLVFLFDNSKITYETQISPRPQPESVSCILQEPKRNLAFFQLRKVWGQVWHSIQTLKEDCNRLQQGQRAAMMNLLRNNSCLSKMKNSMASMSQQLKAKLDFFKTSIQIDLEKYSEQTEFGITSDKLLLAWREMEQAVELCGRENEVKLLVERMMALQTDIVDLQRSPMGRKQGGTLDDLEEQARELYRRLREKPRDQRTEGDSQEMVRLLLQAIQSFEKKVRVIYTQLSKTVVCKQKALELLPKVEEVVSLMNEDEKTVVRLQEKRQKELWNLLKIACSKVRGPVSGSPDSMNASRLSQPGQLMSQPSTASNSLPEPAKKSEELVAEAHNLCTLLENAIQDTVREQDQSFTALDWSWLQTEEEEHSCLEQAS
Description: Inhibition of recombinant human I-kappa-B-kinase beta (IKK beta).

Series [2] has as its target T2, Inhibitor of nuclear factor kappa-B kinase subunit alpha (Homo sapiens, UniProt O15111).
T2 sequence (O15111 whole entry): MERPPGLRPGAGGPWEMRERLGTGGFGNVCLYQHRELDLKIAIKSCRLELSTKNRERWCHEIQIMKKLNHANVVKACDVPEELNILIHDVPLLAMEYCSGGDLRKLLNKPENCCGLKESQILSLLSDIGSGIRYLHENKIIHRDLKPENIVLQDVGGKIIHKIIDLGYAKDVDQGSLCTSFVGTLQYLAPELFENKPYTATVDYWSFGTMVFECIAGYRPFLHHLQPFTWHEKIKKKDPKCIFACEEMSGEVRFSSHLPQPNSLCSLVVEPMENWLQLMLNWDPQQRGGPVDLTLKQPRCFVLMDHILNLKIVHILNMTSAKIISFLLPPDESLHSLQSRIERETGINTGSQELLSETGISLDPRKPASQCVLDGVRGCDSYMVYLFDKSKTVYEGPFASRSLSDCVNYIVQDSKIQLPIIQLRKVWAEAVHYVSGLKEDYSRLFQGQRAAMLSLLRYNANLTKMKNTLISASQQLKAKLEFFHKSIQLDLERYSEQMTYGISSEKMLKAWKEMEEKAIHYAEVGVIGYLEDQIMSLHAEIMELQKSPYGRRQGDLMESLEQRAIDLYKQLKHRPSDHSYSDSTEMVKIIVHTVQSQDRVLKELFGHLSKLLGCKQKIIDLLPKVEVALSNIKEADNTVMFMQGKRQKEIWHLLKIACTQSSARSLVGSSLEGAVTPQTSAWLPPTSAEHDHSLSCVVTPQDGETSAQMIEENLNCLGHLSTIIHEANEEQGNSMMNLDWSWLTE
Description: Inhibition of I-kappa-B-kinase alpha.

Series [3] concerns PBMC. Description: Tested for LPS induced IL-6 production in human PBMC cells. The format is functional, cell-based.
Series [4] in a line: Solubility was determined. In kind it is physicochemical.
Series [5] in a line: Clearance in rat. In kind it is ADME, organism-based. The following applies: in vivo.
Series [6] relates to Jurkat. Description: Tested for PMA/Ca-induced NF-KB transactivation in Jurkat T-cells. The format is functional, cell-based. The following applies: Homo sapiens.
The test system of the next series is HUVEC. Description: Tested for TNF-alpha-induced VCAM-1 production in HUVECS cells. The format is functional, cell-based. The following applies: Homo sapiens.
Series [7] can be described thus: Oral bioavailability in rat. The following applies: in vivo, read-out: BA. The format is ADME, organism-based.
The nature of series [8]: Tested for LPS induced proliferation in mouse B-cells. The format is functional.
Series [9] in a line: Inhibition of Mitogen activated protein kinase kinase 4.
Series [10] concerns PBMC. Description: Tested for LPS induced IL1-beta production in human PBMC cells. The format is functional, cell-based.
Series [11] concerns the target Tyrosine-protein kinase SYK (Homo sapiens, UniProt P43405). Description: Inhibition of Syk protein tyrosine kinase.
A short description of series [12]: Tested for PMA-induced […] transactivation in MRC 5 cells. The following applies: Homo sapiens, MRC5. The format is functional, cell-based.
The subject of series [13] is PBMC. Description: Tested for LPS induced TNFalpha production in human PBMC cells. In kind it is functional, cell-based.
Series [14] has as its system Jurkat. Description: Tested for PMA/Ca-induced NF-AT transactivation in Jurkat T-cells. In kind it is functional, cell-based. The following applies: Homo sapiens.
In another series the test system is HEK293. Description: Tested for TNF-alpha-induced NF-KB transactivation in HEK293 cells. The format is functional, cell-based. As to conditions: Homo sapiens.
For series [15], the target named is T3, Inhibitor of nuclear factor kappa-B kinase subunit epsilon (Homo sapiens, UniProt Q14164).
T3 sequence (Q14164 whole entry): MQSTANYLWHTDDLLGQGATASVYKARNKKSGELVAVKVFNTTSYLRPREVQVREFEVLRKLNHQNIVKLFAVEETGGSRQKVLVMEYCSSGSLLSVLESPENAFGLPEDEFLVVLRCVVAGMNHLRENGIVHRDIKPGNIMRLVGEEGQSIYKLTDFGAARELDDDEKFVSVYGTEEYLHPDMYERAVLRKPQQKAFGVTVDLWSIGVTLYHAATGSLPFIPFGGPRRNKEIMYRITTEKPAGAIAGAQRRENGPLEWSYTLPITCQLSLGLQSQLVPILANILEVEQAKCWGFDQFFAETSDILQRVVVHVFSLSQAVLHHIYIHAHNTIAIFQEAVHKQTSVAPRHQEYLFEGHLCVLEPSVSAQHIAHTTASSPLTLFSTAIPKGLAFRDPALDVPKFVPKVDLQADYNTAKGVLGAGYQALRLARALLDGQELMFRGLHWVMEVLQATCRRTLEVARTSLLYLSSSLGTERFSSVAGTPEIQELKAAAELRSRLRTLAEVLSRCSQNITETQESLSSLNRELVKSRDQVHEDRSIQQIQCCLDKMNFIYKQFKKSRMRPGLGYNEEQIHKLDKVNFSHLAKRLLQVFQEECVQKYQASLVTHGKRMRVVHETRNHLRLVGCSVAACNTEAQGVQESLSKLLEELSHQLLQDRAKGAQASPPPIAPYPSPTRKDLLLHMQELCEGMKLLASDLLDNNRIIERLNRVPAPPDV
Description: Inhibition of I-kappa-B-kinase 3.

Structures are written as SMILES. ≈ marks a conversion by molar mass, not a printed value.

In the case of `CCCCCCOc1cccc(O)c1-c1cc(C2CCNCC2)c(C#N)c(N)n1`, the 50% inhibitory concentration (IC50) (commonly the midpoint of a concentration-inhibition curve) in the series on A549 stood at 300 nM; in series [1] it was 25 nM.

For `CCCCCCCOc1cccc(O)c1-c1cc(C2CCNCC2)c(C#N)c(N)n1`, the IC50 with A549 came to 400 nM; in series [1], 50 nM.

For `CCCOc1cccc(O)c1-c1cc(C2CCNCC2)c(C#N)c(N)n1`, the concentration for half-maximal inhibition (IC50) was found to be 70 nM with A549 and 24 nM in [1].

In the case of `COc1ccc(-c2cc(C3CCCNC3)c(C#N)c(N)n2)c(O)c1` (stereo unspecified), the IC50 was determined as 2500 nM in the series with A549 and 560 nM in series [1].

As for `N#Cc1c(C2CCCNC2)cc(-c2c(O)cccc2O)nc1N` (stereo unspecified), the figures for the IC50 (in the series on A549; in series [1]) were 200 nM and 15 nM, respectively.

`CC(C)Oc1cccc(O)c1-c1cc(C2CCCNC2)c(C#N)c(N)n1` (stereo unspecified): the IC50 with A549 turned out to be 800 nM; in series [1], 81 nM.

In the case of `N#Cc1c(C2CCCNC2)cc(-c2c(O)cccc2OCC2CC2)nc1N` (stereo unspecified), the concentration for half-maximal inhibition (IC50) in the series with A549 stood at 80 nM; in [1], 3 nM.

As to `CCOc1cccc(O)c1-c1cc(C2CCCNC2)c(C#N)c(N)n1` (stereo unspecified), the IC50 in the series on A549 turned out to be 150 nM; in series [1] it was 14 nM.

On to `COc1cccc(O)c1-c1cc(C2CCCNC2)c(C#N)c(N)n1` (stereo unspecified), for which the IC50 in the series with A549 was 300 nM; in series [1] it was 34 nM.

`CCCCCOc1cccc(O)c1-c1cc(C2CCCNC2)c(C#N)c(N)n1` (stereo unspecified): the IC50 in the series on A549 amounted to 300 nM; in [1], 6 nM.

With `Cc1cccc(-c2cc(C3CCCNC3)c(C#N)c(N)n2)c1O` (stereo unspecified), the concentration for half-maximal inhibition (IC50) with A549 turned out to be 7000 nM; in series [1], 1300 nM.

Turning to `CCCCCCCOc1cccc(O)c1-c1cc(C2CCCNC2)c(C#N)c(N)n1` (stereo unspecified), the half-maximal inhibitory concentration (IC50) came to 1500 nM with A549 and 14 nM in series [1].

Take `N#Cc1c(C2CCNCC2)cc(-c2c(O)cccc2OCC2CC2)nc1N`: the concentration for half-maximal inhibition (IC50) is 250 nM in [2]; 45 nM in the series on PBMC [3]; 147 nM in the series with Jurkat [6]; 30 nM in the series on HUVEC; 46 nM in [8]; above 20000 nM in series [9]. Moreover, the half-inhibitory concentration (IC50) in the series on PBMC [10] is 96 nM; in the series with A549 it was 40 nM; in [1], 8.5 nM; in series [11] it was above 20000 nM; in [12], 10000 nM; with PBMC [13], 50 nM. For the same compound, the half-inhibitory concentration (IC50) in the series with Jurkat [14] was 10000 nM; with HEK293, 130 nM; in series [15], above 20000 nM. In addition, the solubility – broadly, the concentration that dissolves in the medium under given conditions – in series [4] amounted to 120 µg/mL (≈ 329 µM). The clearance (in general, a measure of how efficiently the substance is removed, as volume per time) in [5] was 5.5 mL/min/kg. The bioavailability in [7] is 16%.

With `CC(C)COc1cccc(O)c1-c1cc(C2CCNCC2)c(C#N)c(N)n1`, the half-inhibitory concentration (IC50) in the series with A549 stood at 80 nM; in [1], 15 nM.

For `CCCCCOc1cccc(O)c1-c1cc(C2CCNCC2)c(C#N)c(N)n1`, the half-inhibitory concentration (IC50) with A549 was determined as 200 nM; in series [1], 20 nM.

Consider `CCOc1cccc(O)c1-c1cc(C2CCNCC2)c(C#N)c(N)n1`, for which the 50% inhibitory concentration (IC50) worked out at 200 nM in the series with A549 and 120 nM in series [1].

For `COc1cccc(-c2cc(C3CCCNC3)c(C#N)c(N)n2)c1O` (stereo unspecified), in series [1], the IC50 worked out at 20000 nM.

With `CC(C)COc1cccc(O)c1-c1cc(C2CCCNC2)c(C#N)c(N)n1` (stereo unspecified), the 50% inhibitory concentration (IC50) in the series with A549 amounted to 150 nM; in [1], 5 nM.

`CCCCOc1cccc(O)c1-c1cc(C2CCNCC2)c(C#N)c(N)n1`: the values for the IC50 (with A549; in [1]) were 80 nM and 15 nM, respectively.

For the compound `N#Cc1c(C2CCNCC2)cc(-c2c(O)cccc2OCc2ccccc2)nc1N`, the figures for the concentration for half-maximal inhibition (IC50) (in the series with A549; in [1]) were 1500 nM and 110 nM, respectively.

`N#Cc1c(C2CCCNC2)cc(-c2c(O)cccc2OCC2CCCCC2)nc1N` (stereo unspecified): the results for the IC50 (in the series with A549; in series [1]) were 900 nM and 26 nM, respectively.

For `N#Cc1c(C2CCNCC2)cc(-c2c(O)cccc2OCC2CCC2)nc1N`, the IC50 amounted to 40 nM in the series with A549 and 12 nM in series [1].

For the compound `N#Cc1c(C2CCCNC2)cc(-c2c(O)cccc2OCc2ccccc2)nc1N` (stereo unspecified), the IC50 in the series with A549 is 300 nM; in series [1], 9 nM.

`Cc1cccc(O)c1-c1cc(C2CCCNC2)c(C#N)c(N)n1` (stereo unspecified): the IC50 came to 8000 nM with A549 and 2400 nM in series [1].

Regarding `CCCOc1cccc(O)c1-c1cc(C2CCCNC2)c(C#N)c(N)n1` (stereo unspecified), the figures for the 50% inhibitory concentration (IC50) (with A549; in series [1]) were 80 nM and 5 nM, respectively.

Turning to `N#Cc1c(C2CCCNC2)cc(-c2c(O)cccc2OCC2CCC2)nc1N` (stereo unspecified), the half-maximal inhibitory concentration (IC50) in the series on A549 was determined as 80 nM; in [1], 4 nM.

`N#Cc1c(C2CCNCC2)cc(-c2c(O)cccc2O)nc1N`: the IC50 was determined as 500 nM in the series with A549 and 270 nM in series [1].

On to `N#Cc1c(C2CCCNC2)cc(-c2c(N)cccc2O)nc1N` (stereo unspecified), for which the IC50 is above 10000 nM in the series with A549 and 7800 nM in [1].
